This note sets out measurements from US12503436B2, “Compounds and compositions for treating conditions associated with STING activity” (NOVARTIS PHARMA AG, priority 2021, dated 2025).

The EC50 is the concentration at which the effect is half-maximal.

For this experiment, the target named is STING (Homo sapiens, UniProt Q86WV6, G230A/H232R/R293Q/R71H). The experiment can be described thus: STING reporter assay in THP1-Dual KO-IFNAR2 cells (2′3′cGAMP stimulation, luciferase reporter). The note with it: 15 μM 2′3′cGAMP stimulation, 24 h, read-out: Pharmaron, THP1_IFNAR2 STING 24 h Luci Normalized: GeoMean EC50. The experiment is classed as cell-based. The procedure: STING pathway activation by the compounds described herein was measured using THP1-Dual™ cells (KO-IFNAR2).
STING, sequence (Q86WV6 whole entry R71H/G230A/H232R/R293Q): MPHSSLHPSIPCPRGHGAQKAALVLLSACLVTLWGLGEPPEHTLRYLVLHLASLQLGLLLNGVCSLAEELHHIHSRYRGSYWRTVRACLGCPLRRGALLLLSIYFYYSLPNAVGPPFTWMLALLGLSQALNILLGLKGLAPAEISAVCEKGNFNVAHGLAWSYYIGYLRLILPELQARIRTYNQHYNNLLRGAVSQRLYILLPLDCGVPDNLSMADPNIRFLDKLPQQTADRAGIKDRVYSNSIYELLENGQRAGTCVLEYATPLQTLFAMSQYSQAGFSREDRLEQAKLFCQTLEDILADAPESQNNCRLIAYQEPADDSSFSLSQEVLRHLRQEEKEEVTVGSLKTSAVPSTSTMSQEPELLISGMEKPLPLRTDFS
THP1-Dual™ KO-IFNAR2 Cells (obtained from InvivoGen) were maintained in RPMI, 10% FCS, 5 ml P/S, 2 mM L-glut, 10 mM Hepes, and 1 mM sodium pyruvate. Compounds were spotted in empty 384 well tissue culture plates (Greiner 781182) by Echo for a final concentration of 0.0017-100 μM. Cells were plated into the TC plates at 40 μL per well, 2×10E6 cells/mL. For activation with STING ligand, 2′3′cGAMP (MW 718.38, obtained from Invivogen), was prepared in Optimem media.
The following solutions were prepared for each 1×384 plate: • Solution A: 2 mL Optimem with one of the following stimuli: • 60 μL of 10 mM 2′3′cGAMP→150 μM stock • Solution B: 2 mL Optimem with 60 μL Lipofectamine 2000→Incubate 5 min at RT
2 mL of solution A and 2 ml Solution B was mixed and incubated for 20 min at room temperature (RT). 20 μL of transfection solution (A+B) was added on top of the plated cells, with a final 2′3′cGAMP concentration of 15 μM. The plates were then centrifuged immediately at 340 g for 1 minute, after which they were incubated at 37° C., 5% CO2, >98% humidity for 24 h. Luciferase reporter activity was then measured. EC50 values were calculated by using standard methods known in the art.
Luciferase reporter assay: 10 μL of supernatant from the assay was transferred to white 384-plate with flat bottom and squared wells. One pouch of QUANTI-Luc™ Plus was dissolved in 25 mL of water. 100 μL of QLC Stabilizer per 25 mL of QUANTI-Luc™ Plus solution was added. 50 μL of QUANTI-Luc™ Plus/QLC solution per well was then added. Luminescence was measured on a Platereader (e.g., Spectramax I3X (Molecular Devices GF3637001)).
Luciferase reporter activity was then measured. EC50 values were calculated by using standard methods known in the art.
For the compound `CCC(=O)Nc1c[nH]c2ccc(OCCc3ccc(C(F)(F)F)cc3)cc12` [Compound 146, N-(5-(4-(trifluoromethyl)phenethoxy)-1H-indol-3-yl)propionamide], the EC50 fell in the range of 40 to 200 nM.

Take `O=C(Nc1c[nH]c2ccc(O[C@H]3C[C@H](c4ccc(C(F)(F)F)cc4)C3)cc12)C1CC1` [Compound 147, N-(5-(trans-3-(4-(trifluoromethyl)phenyl)cyclobutoxy)-1H-indol-3-yl)cyclopropanecarboxamide]: the EC50 lay within 40 to 200 nM.

Turning to `CC1(C(=O)Nc2c[nH]c3ccc(O[C@H]4C[C@H](c5ccc(C(F)(F)F)cc5)C4)cc23)COC1` [Compound 148, 3-methyl-N-(5-(trans-3-(4-(trifluoromethyl)phenyl)cyclobutoxy)-1H-indol-3-yl)oxetane-3-carboxamide], the EC50 lay in the range of 200 to 1000 nM.

Take `O=C(Nc1c[nH]c2ccc(OCCc3ccc(C(F)(F)F)cc3)cc12)C1CN(CC(F)F)C1` [Compound 149, 1-(2,2-difluoroethyl)-N-(5-(4-(trifluoromethyl)phenethoxy)-1H-indol-3-yl)azetidine-3-carboxamide]: the EC50 is 40 to 200 nM.

As for `C[C@H]1C[C@@H](C(=O)Nc2c[nH]c3ccc(OCC[C@@H]4C[C@@H]5CN(CC(F)(F)F)C[C@@H]5C4)cc23)C1` [Compound 150, (1R,3S)—N-(5-{2-[(3aR,5S,6aS)-2-(2,2,2-trifluoroethyl)-octahydrocyclopenta[c]pyrrol-5-yl]ethoxy}-1H-indol-3-yl)-3-methylcyclobutane-1-carboxamide], the half-maximal effective concentration (EC50) is 200 to 1000 nM.

With `CC1(F)CC(C(=O)Nc2c[nH]c3ccc(OCC[C@@H]4C[C@@H]5CN(CC(F)(F)F)C[C@@H]5C4)cc23)C1` (stereo partly drawn) [Compound 151, 3-fluoro-3-methyl-N-(5-(2-((3aR,5r,6aS)-2-(2,2,2-trifluoroethyl)octahydrocyclopenta[c]pyrrol-5-yl)ethoxy)-1H-indol-3-yl)cyclobutane-1-carboxamide], the EC50 fell in the range of 200 to 1000 nM.

`O=C(Nc1c[nH]c2ccc(OCC[C@@H]3C[C@@H]4CN(CC(F)(F)F)C[C@@H]4C3)cc12)C1CCOCC1` [Compound 152, N-(5-{2-[(3aR,5S,6aS)-2-(2,2,2-trifluoroethyl)-octahydrocyclopenta[c]pyrrol-5-yl]ethoxy}-1H-indol-3-yl)oxane-4-carboxamide]: the EC50 fell in the range of 200 to 1000 nM.

As to `O=C(Nc1c[nH]c2ccc(OCc3ccc(C(F)(F)F)cc3)cc12)C1CC(CO)C1` (centres unmarked) [Compound 153, 3-(hydroxymethyl)-N-(5-((4-(trifluoromethyl)benzyl)oxy)-1H-indol-3-yl)cyclobutane-1-carboxamide], the EC50 is 200 to 1000 nM.

Regarding `CC1(C(=O)Nc2c[nH]c3ccc(OCc4ccc(C(F)(F)F)cc4)cc23)CCOC1` (centres unmarked) [Compound 154, 3-methyl-N-(5-((4-(trifluoromethyl)benzyl)oxy)-1H-indol-3-yl)tetrahydrofuran-3-carboxamide], the EC50 lay in the range of 200 to 1000 nM.

Take `CC1(C)CC1C(=O)Nc1c[nH]c2ccc(OCc3ccc(C(F)(F)F)cc3)cc12` (centres unmarked) [Compound 155, 2,2-dimethyl-N-(5-((4-(trifluoromethyl)benzyl)oxy)-1H-indol-3-yl)cyclopropane-1-carboxamide]: the EC50 was in the range of 200 to 1000 nM.

`O=C(Nc1c[nH]c2ccc(OCc3ccc(C(F)(F)F)cc3)cc12)C1CCOCC1` [Compound 156, N-(5-{[4-(trifluoromethyl)phenyl]methoxy}-1H-indol-3-yl)oxane-4-carboxamide]: the 50% effective concentration (EC50) is 200 to 1000 nM.

As to `CC(C)(C)CC(=O)Nc1c[nH]c2ccc(O[C@H]3C[C@@H](c4ccc(C(F)(F)F)cc4)C3)cc12` [Compound 157, 3,3-dimethyl-N-(5-(cis-3-(4-(trifluoromethyl)phenyl)cyclobutoxy)-1H-indol-3-yl)butanamide], the EC50 lay within 40 to 200 nM.

As for `O=C(Nc1c[nH]c2ccc(O[C@H]3C[C@@H](c4ccc(C(F)(F)F)cc4)C3)cc12)C1CC(CO)C1` (stereo partly drawn) [Compound 158, 3-(hydroxymethyl)-N-(5-(cis-3-(4-(trifluoromethyl)phenyl)cyclobutoxy)-1H-indol-3-yl)cyclobutane-1-carboxamide], the EC50 fell in the range of 40 to 200 nM.

As to `COC1CC(C(=O)Nc2c[nH]c3ccc(O[C@H]4C[C@@H](c5ccc(C(F)(F)F)cc5)C4)cc23)C1` (stereo partly drawn) [Compound 159, 3-methoxy-N-{5-[(1S,3S)-3-[4-(trifluoromethyl)phenyl]cyclobutoxy]-1H-indol-3-yl}cyclobutane-1-carboxamide], the EC50 is 40 to 200 nM.

For `CC1(C(=O)Nc2c[nH]c3ccc(OCC[C@@H]4C[C@@H]5CN(CC(F)(F)F)C[C@@H]5C4)cc23)CCCO1` (stereo partly drawn) [Compound 160, 2-methyl-N-(5-(2-((3aR,5r,6aS)-2-(2,2,2-trifluoroethyl)octahydrocyclopenta[c]pyrrol-5-yl)ethoxy)-1H-indol-3-yl)tetrahydrofuran-2-carboxamide], the concentration giving a half-maximal response (EC50) is 200 to 1000 nM.

Take `CC1(C(=O)Nc2c[nH]c3ccc(OCC[C@@H]4C[C@@H]5CN(CC(F)(F)F)C[C@@H]5C4)cc23)CCOCC1` [Compound 161, 4-methyl-N-(5-(2-((3aR,5r,6aS)-2-(2,2,2-trifluoroethyl)octahydrocyclopenta[c]pyrrol-5-yl)ethoxy)-1H-indol-3-yl)tetrahydro-2H-pyran-4-carboxamide]: the EC50 is 40 to 200 nM.

Consider `C[C@H]1C[C@@H](C(=O)Nc2c[nH]c3ccc(OCCc4ccc(C(F)(F)F)cc4)cc23)C1` [Compound 162, cis-3-methyl-N-(5-(4-(trifluoromethyl)phenethoxy)-1H-indol-3-yl)cyclobutane-1-carboxamide], for which the EC50 lay in the range of 40 to 200 nM.

As to `O=C(Nc1c[nH]c2ccc(OCCc3ccc(C(F)(F)F)cc3)cc12)C1COC1` [Compound 163, N-(5-(4-(trifluoromethyl)phenethoxy)-1H-indol-3-yl)oxetane-3-carboxamide], the EC50 was in the range of 40 to 200 nM.

Turning to `O=C(Nc1c[nH]c2ccc(CCOc3ccc(C(F)(F)F)cc3)cc12)C1COC1` [Compound 164, N-(5-(2-(4-(trifluoromethyl)phenoxy)ethyl)-1H-indol-3-yl)oxetane-3-carboxamide], the concentration giving a half-maximal response (EC50) was in the range of 200 to 1000 nM.

In the case of `CC1(C(=O)Nc2c[nH]c3ccc(CCOc4ccc(C(F)(F)F)cc4)cc23)COC1` [Compound 165, 3-methyl-N-(5-(2-(4-(trifluoromethyl)phenoxy)ethyl)-1H-indol-3-yl)oxetane-3-carboxamide], the EC50 is 40 to 200 nM.

As for `CC1(C(=O)Nc2c[nH]c3ccc(OCc4ccc(C(F)(F)F)cc4)cc23)COC1` [Compound 166, 3-methyl-N-(5-((4-(trifluoromethyl)benzyl)oxy)-1H-indol-3-yl)oxetane-3-carboxamide], the EC50 lay within 40 to 200 nM.

For `O=C(Nc1c[nH]c2ccc(CCOc3ccc(C(F)(F)F)nc3)cc12)C1CC1` [Compound 167, N-(5-(2-((6-(trifluoromethyl)pyridin-3-yl)oxy)ethyl)-1H-indol-3-yl)cyclopropanecarboxamide], the EC50 fell in the range of 200 to 1000 nM.

As for `CCC(=O)Nc1c[nH]c2ccc(CCOc3ccc(C)cc3)cc12` [Compound 168, N-(5-(2-(p-tolyloxy)ethyl)-1H-indol-3-yl)propionamide], the EC50 lay within 200 to 1000 nM.

For the compound `CC(=O)Nc1c[nH]c2ccc(OCCc3ccc(S(F)(F)(F)(F)F)cc3)cc12` [Compound 169, N-(5-(4-(pentafluoro-16-sulfaneyl)phenethoxy)-1H-indol-3-yl)acetamide], the EC50 was 40 to 200 nM.

Turning to `CC(=O)Nc1c[nH]c2ccc(CCOc3ccc(C4CCN(CC(F)(F)F)CC4)cc3)cc12` [Compound 170, N-(5-(2-(4-(1-(2,2,2-trifluoroethyl)piperidin-4-yl)phenoxy)ethyl)-1H-indol-3-yl)acetamide], the EC50 lay in the range of 200 to 1000 nM.

As to `CC(=O)Nc1c[nH]c2ccc(OCCC3CC4(C3)CN(CC(F)(F)F)C4)cc12` [Compound 171, N-(5-(2-(2-(2,2,2-trifluoroethyl)-2-azaspiro[3.3]heptan-6-yl)ethoxy)-1H-indol-3-yl)acetamide], the concentration for a half-maximal effect (EC50) is 1000 to 5000 nM.

On to `CC1(C(=O)Nc2c[nH]c3ccc(C(O)CCc4ccc(C(F)(F)F)cc4)cc23)CC1` (centres unmarked) [Compound 172, N-(5-(1-hydroxy-3-(4-(trifluoromethyl)phenyl)propyl)-1H-indol-3-yl)-1-methylcyclopropane-1-carboxamide], for which the half-maximal effective concentration (EC50) lay within 200 to 1000 nM.

On to `CC(=O)Nc1c[nH]c2cc(Br)c(OCCc3ccc(C(F)(F)F)cc3)cc12` [Compound 173, N-(6-bromo-5-(4-(trifluoromethyl)phenethoxy)-1H-indol-3-yl)acetamide], for which the 50% effective concentration (EC50) lay in the range of 5000 to 100000 nM.

On to `CC1(C(=O)Nc2c[nH]c3ccc(CC(O)Cc4ccc(C(F)(F)F)cc4)cc23)CC1` (centres unmarked) [Compound 174, N-(5-(2-hydroxy-3-(4-(trifluoromethyl)phenyl)propyl)-1H-indol-3-yl)-1-methylcyclopropane-1-carboxamide], for which the concentration giving a half-maximal response (EC50) was in the range of 200 to 1000 nM.
